From BindingDB's records for doi:10.1016/j.bmcl.2011.01.015 (Incyte, 2011) come the findings set out here.

This assay can be described thus: Antagonist activity at human CCR5 receptor by chemotaxis assay.

Molecules are shown by their SMILES. pIC50: −log10 of the molar value.

As to `CO[C@@H]1COCC[C@@H]1N[C@@H]1CC[C@](CC(F)(F)F)(C(=O)N2CCN(c3cc(C(F)(F)F)ccn3)CC2)C1` [((1S,3R)-3-((3S,4S)-3-methoxy-tetrahydro-2H-pyran-4-ylamino)-1-(2,2,2-trifluoroethyl)cyclopentyl)(4-(4-(trifluoromethyl)pyridin-2-yl)piperazin-1-yl)methanone], the pIC50 – broadly, the IC50 on a negative log10 scale, so that one unit is a factor of ten – was 7.96.
